The target in assay [1] is Carbonic anhydrase 1 (Homo sapiens, UniProt P00915). In words: hCA Activity Assay.
The target of assay [2] is Carbonic anhydrase 2 (Homo sapiens, UniProt P00918). In words: hCA Activity Assay.

pKi: −log10 of the molar value.

Consider nine compounds from BindingDB's records for doi:10.3109/14756366.2011.599029 (Dumlupinar University, 2012).

Sequence of Carbonic anhydrase 1 (P00915 whole entry): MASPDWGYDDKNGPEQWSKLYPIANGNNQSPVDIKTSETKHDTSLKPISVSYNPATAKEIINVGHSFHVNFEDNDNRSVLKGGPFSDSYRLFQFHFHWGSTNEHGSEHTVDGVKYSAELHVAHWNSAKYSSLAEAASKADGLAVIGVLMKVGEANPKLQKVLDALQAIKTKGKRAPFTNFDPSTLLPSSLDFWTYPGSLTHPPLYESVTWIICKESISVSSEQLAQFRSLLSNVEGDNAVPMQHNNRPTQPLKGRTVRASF

For the compound `COc1ccc(C2C3=C(CCCC3=O)N(c3ccc(S(N)(=O)=O)cc3)C3=C2C(=O)CCC3)cc1` [4-(9-(4-methoxyphenyl)-1,8-dioxo-1,2,3,4,5,6,7,8-octahydroacridine-10(9H)-yl)benzene sulfonamide (8)], the values for the pKi in assay [1] and in assay [2] were 8.07 and 8.15, respectively.
The matching figures for `COc1ccc(C2C3=C(CC(C)(C)CC3=O)N(c3ccc(S(N)(=O)=O)cc3)C3=C2C(=O)CC(C)(C)C3)cc1` [4-(9-(4-Methoxyphenyl)-3,3,6,6-tetramethyl-1,8-dioxo-1,2,3,4,5,6,7,8-octahydroacridine-10(9H)-yl)benzenesulfonamide (5)]: 7.12 and 6.82.
On the same counts, the results for `CC1(C)CCC2=C(C1=O)C(c1ccc(C#N)cc1)C1=C(CCC(C)(C)C1=O)N2c1ccc(S(N)(=O)=O)cc1` [4-(9-(4-Cyanophenyl)-2,2,7,7-tetramethyl 1,8-dioxo 1,2,3,4,5,6,7,8-octahydroacridine 10(9H)-yl)benzenesulfonamide (9)] are 6.87 and 7.02.
As for `COc1ccc(C2C3=C(CCCC3=O)N(c3ccc(S(N)(=O)=O)cc3)C3=C2C(=O)CCC3)c(OC)c1` [4-(9-(2,4-dimethoxyphenyl)-1,8-dioxo-1,2,3,4,5,6,7,8-octahydroacridine-10(9H)-yl) benzenesulfonamide (7)], the pKi in assay [1] was 7.82; in assay [2], 8.82.
The matching figures for `CC1(C)CC(=O)C2=C(C1)N(c1ccc(S(N)(=O)=O)cc1)C1=C(C(=O)CC(C)(C)C1)C2c1ccc(C#N)cc1` [4-(9-(4-Cyanophenyl)-3,3,6,6-tetramethyl-1,8-dioxo-1,2,3,4,5,6,7,8-octahydroacridine-10(9H)-yl)benzenesulfonamide (4)]: 6.28 and 6.60.
The matching figures for `CC1(C)CCC2=C(C1=O)C(c1ccc(O)cc1)C1=C(CCC(C)(C)C1=O)N2c1ccc(S(N)(=O)=O)cc1` [4-(9-(4-Hydroxyphenyl)-2,2,7,7-tetramethyl 1,8-dioxo 1,2,3,4,5,6,7,8-octahydroacridine 10(9H)-yl)benzenesulfonamide (10)]: 7.35 and 6.90.
On the same counts, the results for `CC1(C)CC(=O)C2=C(C1)N(c1ccc(S(N)(=O)=O)cc1)C1=C(C(=O)CC(C)(C)C1)C2c1ccccn1` [4-(3,3,6,6-tetramethyl-1,8-dioxo-9-(pyridin-2-yl)-1,2,3,4,5,6,7,8-octahydroacridine-10(9H)-yl)benzenesulfonamide (6)] are 7.26 and 6.89.
Turning to `CC1(C)CCC2=C(C1=O)C(c1ccc(Cl)cc1Cl)C1=C(CCC(C)(C)C1=O)N2c1ccc(S(N)(=O)=O)cc1` [4-(9-(2,4-Dichlorophenyl)-2,2,7,7-tetramethyl 1,8-dioxo 1,2,3,4,5,6,7,8-octahydroacridine 10(9H)-yl)benzenesulfonamide (12)], the figures for the pKi in assay [1] and in assay [2] were 6.66 and 7.46, respectively.
On the same counts, the results for `COc1ccc(C2C3=C(CCC(C)(C)C3=O)N(c3ccc(S(N)(=O)=O)cc3)C3=C2C(=O)C(C)(C)CC3)cc1OC` [4-(9-(3,4-Dimethoxyphenyl)-2,2,7,7-tetramethyl 1,8-dioxo 1,2,3,4,5,6,7,8-octahydroacridine 10(9H)-yl)benzenesulfonamide (11)] are 6.69 and 6.92.
